From patent US12053465B2, “KCC2 expression enhancing compounds and uses thereof” (Whitehead Institute for Biomedical Research, priority 2017, dated 2024)
Entries after “also recorded” stand apart in the source; their conditions may differ.

Key:
[1] = tested on: KCC2 expression (KCC2-2A-luciferase reporter); assay: KCC2-2A-luciferase reporter compound screening with RTT KCC2 reporter neurons; type: cell-based, human; conditions: MECP2-null RTT human KCC2 reporter neurons; LINCS, SMART, ICCB libraries; Luc/CTG normalized to in-plate DMSO; hit = B score >3
Procedure, shortened: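 MECP2-null RTT human neurons carrying a KCC2-2A-luciferase reporter, differentiated 4 weeks, were treated with library compounds at 10 μM for 1–2 weeks at 37 °C. Lysate luciferase was normalized to CellTiter-Glo ATP per well and expressed as fold change over in-plate DMSO. Hits were called at B score >3.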

Mecp2 mutant mice [2] = assay: Plethysmograph breathing measurement in Mecp2 mutant mouse model of RTT; type: in vivo; conditions: male Mecp2 mutant mice; daily injection, two weeks; vs DMSO- or EtOH-injected control
Experimental: (§1) We assessed the in vivo efficacy of KEECs by treating RTT disease-related symptoms such as breathing pauses and reduced locomotion (58) in a Mecp2 mutant mouse model of RTT. […] Plethysmograph and locomotion measurements were made in 4-6 week-old male Mecp2 mutant animals as a pre-treatment control time point and were then injected daily with KEECs KW-2449 or Piperine. Injection of the solvent DMSO or ethanol (EtOH) served as vehicle controls (FIG. 15A). The same two behavioral measurements in vehicle or KEEC-injected Mecp2 mutant animals were performed again two weeks after the start of daily injections. Each animal's ‘after injection’ data were compared to the ‘before injection’ level to assess behavioral changes.
Male Mecp2 mutant mice (Mecp2^−/y, e.g. the Bird model) between 4-12 weeks of age were used for the in vivo experiments. Subjects were divided into drug treated KO (Piperine/KW-2449), and vehicle treated KO (EtOH/DMSO) groups. Animals were randomly assigned to treatment arms with approximately equivalent numbers in each group. […]
A full body plethysmograph chamber (EMKA Inc, PA) was used to measure breathing patterns. […] For each test, the subject was left in the chamber for 20 minutes, afterwards its breath pattern was recorded for the next 20 minutes, and the estimated amplitude modulation index (eAMI) was calculated from the breath trace to label breath pauses automatically. […]

KCC2 expression = assay: Western blot of KCC2 in cultured human RTT neurons; type: cell-based; conditions: Western blot; for KCC2 expression: cultured human RTT neurons
Procedure, shortened: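 Cultured neurons lysed in RIPA buffer (pH 7.6) with sonication; immunoblotted on PVDF with KCC2 antibody (1:2000) overnight at 4° C., HRP secondary.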

[3] = tested on: mouse models of autism and depression; conditions: intraperitoneal (IP) injection; previous work (59, 60); cited from earlier work
Mecp2 mutant mice [4] = assay: Locomotion (infrared beam break) in Mecp2 mutant mouse model of RTT; type: in vivo
Experimental: as §1
Male Mecp2 mutant mice (Mecp2^−/y, e.g. the Bird model) between 4-12 weeks of age were used for the in vivo experiments. Subjects were divided into drug treated KO (Piperine/KW-2449), and vehicle treated KO (EtOH/DMSO) groups. Animals were randomly assigned to treatment arms with approximately equivalent numbers in each group.
KW-2449 stock solution was prepared at 10 mg/ml with DMSO, and Piperine stock solution at 30 mg/ml with EtOH. 20 μl of stock solution were diluted with 1 ml saline for injection. Daily drug treatments or sham injections were performed on both groups between P28 and P56, for at least two weeks, as Mecp2 mutant mice start to show symptoms around P28 and die around P60. Both following tests were performed on both groups of mice before the injections start, and repeated at the end of the injection period. The animals' performance was then compared before and after drug/vehicle injections.
To measure the subjects' nighttime locomotion, a 1-D infrared light-beam frame (ActiMot, TSE-systems, MO) was used. Animals were single-housed in new cages with the same setup as their home cages. The infrared monitor was set up for each cage and the beam crossings was recorded between 17:00 and 9:00 the next morning, where the lights were turned off between 19:00 and 7:00. The average beam crossing frequency during the night (21:00-5:00) was used as the subject's activity score, and the average beam crossing frequency after lights on (7:00-9:00) was used as the subject's day time activity score. The time periods where the mouse is stationary for >5 minutes are discarded to reduce artifact caused by the mouse sleeping. As we look at both day-time and night-time locomotion, a bonferroni correction with repeated comparison number of 2 was applied. All behavioral analyses were performed by experimenters who were blind to the treatment condition.

## O=C(/C=C/C=C/c1ccc2c(c1)OCO2)N1CCCCC1 [Piperine, (2E,4E)-5-(Benzo[d][1,3]dioxol-5-yl)-1-(piperidin-1-yl)penta-2,4-dien-1-one]
[1]
  B Score: 4.69
Mecp2 mutant mice [2]
  frequency of breathing pauses: significantly reduced the frequency of breathing pauses
KCC2 expression; cultured ESC-derived human RTT neurons
  concentration at which treatment significantly increases KCC2 expression: 10 µM
KCC2 expression
  KCC2 expression: induced KCC2 expression in a dose-dependent manner; also recorded: significant increase in KCC2 expression
KCC2 expression; listed as piperine
  KCC2 expression: increase KCC2 expression
[3]
  symptoms in mouse models of autism and depression: improved symptoms
Mecp2 mutant mice [4]; Mecp2 mutant animals, vs EtOH control
  day-time locomotion: significantly increased day-time locomotion
Mecp2 mutant mice [4]; male Mecp2 mutant mice, daily injection, two weeks, vs DMSO- or EtOH-injected control
  locomotive activities: increased locomotive activities
